Measurements taken from publication PMC7180948, “New Insights into 4-Anilinoquinazolines as Inhibitors of Cardiac Troponin I–Interacting Kinase (TNNi3K)” (Molecules, 2020).

How the values were obtained:
Experiment in all cases: biochemical
Parameters in all cases: KINOMEscan competition binding panel (Eurofins DiscoverX), single concentration, % inhibition
Details in all cases: read-out: 7 at 1 µM % inhibition
[1] = target: T1, ABL1(F317I)-phosphorylated (Homo sapiens, UniProt P00519, F317I)
T1 construct: phosphorylated
Method in brief: (§1)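 Binding was profiled in the KINOMEscan panel of over 400 human kinases, with each compound tested at a single concentration of 1 µM to map selectivity.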

[2] = target: T2, ABL1(Q252H)-nonphosphorylated (Homo sapiens, UniProt P00519, Q252H)
T2 construct: nonphosphorylated
Method in brief: as §1

[3] = target: T3, ABL1(Y253F)-phosphorylated (Homo sapiens, UniProt P00519, Y253F)
T3 construct: phosphorylated
Method in brief: as §1

ADCK3 = target: T4, ADCK3 (Homo sapiens, UniProt Q8NI60)
T4 construct: gene COQ8A
Method in brief: as §1

AMPK-alpha2 = target: T5, AMPK-alpha2 (Homo sapiens, UniProt P54646)
T5 construct: gene PRKAA2
Method in brief: as §1

AURKB = AURKB (Homo sapiens, UniProt Q96GD4)
Sequence of AURKB (Q96GD4 whole entry): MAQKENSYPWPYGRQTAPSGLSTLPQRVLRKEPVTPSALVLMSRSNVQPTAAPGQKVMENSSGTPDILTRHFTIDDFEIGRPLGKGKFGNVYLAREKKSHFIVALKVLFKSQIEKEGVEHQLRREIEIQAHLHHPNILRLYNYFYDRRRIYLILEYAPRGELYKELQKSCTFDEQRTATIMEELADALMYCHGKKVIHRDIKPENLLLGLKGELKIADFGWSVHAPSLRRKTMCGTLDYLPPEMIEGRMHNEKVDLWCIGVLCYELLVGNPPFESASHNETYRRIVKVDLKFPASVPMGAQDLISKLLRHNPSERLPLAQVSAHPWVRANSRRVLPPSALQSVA
Method in brief: as §1

BUB1 = BUB1 (Homo sapiens, UniProt O43683)
Method in brief: as §1

CAMK2B = CAMK2B (Homo sapiens, UniProt Q13554)
Method in brief: as §1

CDK7 = CDK7 (Homo sapiens, UniProt P50613)
Sequence of CDK7 (P50613 whole entry): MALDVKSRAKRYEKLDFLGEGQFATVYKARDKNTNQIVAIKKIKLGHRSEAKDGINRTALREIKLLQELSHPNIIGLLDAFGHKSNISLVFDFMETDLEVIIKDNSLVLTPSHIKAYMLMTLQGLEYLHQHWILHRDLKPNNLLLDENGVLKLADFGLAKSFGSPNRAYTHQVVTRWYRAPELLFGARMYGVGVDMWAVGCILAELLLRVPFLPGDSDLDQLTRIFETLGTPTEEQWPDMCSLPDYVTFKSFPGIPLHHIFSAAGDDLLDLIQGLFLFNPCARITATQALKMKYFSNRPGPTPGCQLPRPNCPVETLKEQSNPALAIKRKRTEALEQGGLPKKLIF
Method in brief: as §1

CDKL5 = CDKL5 (Homo sapiens, UniProt O76039)
Method in brief: as §1

CSNK1G1 = CSNK1G1 (Homo sapiens, UniProt Q9HCP0)
Method in brief: as §1

ERK3 = target: T6, ERK3 (Homo sapiens, UniProt Q16659)
T6 construct: gene MAPK6
T6 sequence (Q16659 whole entry): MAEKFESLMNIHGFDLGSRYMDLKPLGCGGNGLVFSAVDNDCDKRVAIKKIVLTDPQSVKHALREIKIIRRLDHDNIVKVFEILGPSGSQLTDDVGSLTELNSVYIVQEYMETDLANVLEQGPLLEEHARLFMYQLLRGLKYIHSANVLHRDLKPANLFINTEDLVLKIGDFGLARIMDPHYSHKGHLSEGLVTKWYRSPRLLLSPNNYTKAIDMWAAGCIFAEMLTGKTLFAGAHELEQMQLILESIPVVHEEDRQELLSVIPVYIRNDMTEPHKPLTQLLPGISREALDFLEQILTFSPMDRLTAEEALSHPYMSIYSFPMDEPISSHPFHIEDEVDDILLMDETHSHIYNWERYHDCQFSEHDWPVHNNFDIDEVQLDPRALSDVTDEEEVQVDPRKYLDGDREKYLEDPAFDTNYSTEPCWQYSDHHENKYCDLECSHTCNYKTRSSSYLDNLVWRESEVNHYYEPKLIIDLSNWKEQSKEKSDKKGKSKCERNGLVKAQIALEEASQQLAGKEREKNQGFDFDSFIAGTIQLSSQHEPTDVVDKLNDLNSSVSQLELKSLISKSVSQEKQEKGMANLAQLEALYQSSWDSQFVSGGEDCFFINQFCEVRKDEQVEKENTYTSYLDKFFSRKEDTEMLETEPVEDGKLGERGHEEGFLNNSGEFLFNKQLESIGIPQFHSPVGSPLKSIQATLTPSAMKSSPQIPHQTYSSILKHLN
Method in brief: as §1

ERN1 = ERN1 (Homo sapiens, UniProt O75460)
Sequence of ERN1 (O75460 whole entry): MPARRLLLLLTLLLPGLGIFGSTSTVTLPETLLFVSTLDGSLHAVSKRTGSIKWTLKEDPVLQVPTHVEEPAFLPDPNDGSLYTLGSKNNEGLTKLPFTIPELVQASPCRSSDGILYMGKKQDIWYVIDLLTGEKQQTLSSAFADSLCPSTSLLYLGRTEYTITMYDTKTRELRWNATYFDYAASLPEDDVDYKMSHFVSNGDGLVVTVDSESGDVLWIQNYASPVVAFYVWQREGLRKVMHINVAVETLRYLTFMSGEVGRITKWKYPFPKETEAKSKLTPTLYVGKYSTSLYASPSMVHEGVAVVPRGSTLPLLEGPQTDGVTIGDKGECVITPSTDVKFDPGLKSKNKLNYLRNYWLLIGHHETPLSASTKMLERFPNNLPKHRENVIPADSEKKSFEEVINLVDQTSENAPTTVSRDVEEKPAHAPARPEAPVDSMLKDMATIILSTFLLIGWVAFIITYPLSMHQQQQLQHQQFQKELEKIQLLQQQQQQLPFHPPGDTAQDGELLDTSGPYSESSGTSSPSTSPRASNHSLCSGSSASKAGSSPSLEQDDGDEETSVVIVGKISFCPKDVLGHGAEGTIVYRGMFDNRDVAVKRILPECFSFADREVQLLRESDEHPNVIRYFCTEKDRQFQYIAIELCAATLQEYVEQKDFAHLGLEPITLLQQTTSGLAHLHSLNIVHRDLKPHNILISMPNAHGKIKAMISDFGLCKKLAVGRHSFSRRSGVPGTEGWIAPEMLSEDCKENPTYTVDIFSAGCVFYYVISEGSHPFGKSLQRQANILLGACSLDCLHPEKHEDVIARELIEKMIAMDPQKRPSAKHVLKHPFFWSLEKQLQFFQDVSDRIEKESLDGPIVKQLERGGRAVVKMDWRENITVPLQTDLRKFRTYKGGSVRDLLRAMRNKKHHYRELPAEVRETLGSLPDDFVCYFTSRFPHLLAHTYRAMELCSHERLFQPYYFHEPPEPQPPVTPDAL
Method in brief: as §1

IKK-epsilon = target: T7, IKK-epsilon (Homo sapiens, UniProt Q14164)
T7 construct: gene IKBKE
Method in brief: as §1

MLCK = target: T8, MLCK (Homo sapiens, UniProt Q32MK0)
T8 construct: gene MYLK3
Method in brief: as §1

MYO3B = MYO3B (Homo sapiens, UniProt Q8WXR4)
Sequence of MYO3B (Q8WXR4 whole entry): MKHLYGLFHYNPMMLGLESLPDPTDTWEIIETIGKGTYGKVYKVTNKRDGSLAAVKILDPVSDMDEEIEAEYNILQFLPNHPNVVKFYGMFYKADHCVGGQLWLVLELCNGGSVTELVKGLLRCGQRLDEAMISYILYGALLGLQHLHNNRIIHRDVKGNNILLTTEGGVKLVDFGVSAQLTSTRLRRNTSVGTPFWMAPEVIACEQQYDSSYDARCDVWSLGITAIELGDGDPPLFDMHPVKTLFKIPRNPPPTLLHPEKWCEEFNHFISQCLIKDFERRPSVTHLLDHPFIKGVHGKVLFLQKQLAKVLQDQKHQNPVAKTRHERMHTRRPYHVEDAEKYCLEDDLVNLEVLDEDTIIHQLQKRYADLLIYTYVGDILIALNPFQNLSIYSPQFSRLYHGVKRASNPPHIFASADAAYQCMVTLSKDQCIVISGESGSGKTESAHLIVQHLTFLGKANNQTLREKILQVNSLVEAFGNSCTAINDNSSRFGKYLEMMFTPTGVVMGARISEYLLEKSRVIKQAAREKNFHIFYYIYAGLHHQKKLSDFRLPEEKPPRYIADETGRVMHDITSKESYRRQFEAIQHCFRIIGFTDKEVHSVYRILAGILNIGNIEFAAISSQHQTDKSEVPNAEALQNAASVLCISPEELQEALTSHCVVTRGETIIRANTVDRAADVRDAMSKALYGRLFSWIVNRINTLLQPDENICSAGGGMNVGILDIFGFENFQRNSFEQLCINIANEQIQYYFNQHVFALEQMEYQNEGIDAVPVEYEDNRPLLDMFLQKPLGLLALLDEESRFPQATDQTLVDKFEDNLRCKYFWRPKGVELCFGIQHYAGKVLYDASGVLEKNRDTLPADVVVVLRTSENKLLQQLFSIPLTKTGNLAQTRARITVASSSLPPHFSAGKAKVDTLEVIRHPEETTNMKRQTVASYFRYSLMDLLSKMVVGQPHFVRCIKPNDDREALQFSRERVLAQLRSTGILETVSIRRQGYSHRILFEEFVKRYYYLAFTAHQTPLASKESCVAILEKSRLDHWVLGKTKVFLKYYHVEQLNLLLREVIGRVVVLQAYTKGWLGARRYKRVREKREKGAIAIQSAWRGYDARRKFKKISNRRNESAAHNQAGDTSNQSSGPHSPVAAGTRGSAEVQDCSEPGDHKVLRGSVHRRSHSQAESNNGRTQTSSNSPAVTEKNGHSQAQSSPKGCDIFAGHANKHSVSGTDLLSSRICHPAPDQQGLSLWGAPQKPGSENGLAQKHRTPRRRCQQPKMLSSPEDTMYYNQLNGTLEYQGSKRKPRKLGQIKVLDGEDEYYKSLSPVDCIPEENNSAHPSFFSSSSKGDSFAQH
Method in brief: as §1

PAK7 = target: T9, PAK7 (Homo sapiens, UniProt Q9P286)
T9 construct: gene PAK5
T9 sequence (Q9P286 whole entry): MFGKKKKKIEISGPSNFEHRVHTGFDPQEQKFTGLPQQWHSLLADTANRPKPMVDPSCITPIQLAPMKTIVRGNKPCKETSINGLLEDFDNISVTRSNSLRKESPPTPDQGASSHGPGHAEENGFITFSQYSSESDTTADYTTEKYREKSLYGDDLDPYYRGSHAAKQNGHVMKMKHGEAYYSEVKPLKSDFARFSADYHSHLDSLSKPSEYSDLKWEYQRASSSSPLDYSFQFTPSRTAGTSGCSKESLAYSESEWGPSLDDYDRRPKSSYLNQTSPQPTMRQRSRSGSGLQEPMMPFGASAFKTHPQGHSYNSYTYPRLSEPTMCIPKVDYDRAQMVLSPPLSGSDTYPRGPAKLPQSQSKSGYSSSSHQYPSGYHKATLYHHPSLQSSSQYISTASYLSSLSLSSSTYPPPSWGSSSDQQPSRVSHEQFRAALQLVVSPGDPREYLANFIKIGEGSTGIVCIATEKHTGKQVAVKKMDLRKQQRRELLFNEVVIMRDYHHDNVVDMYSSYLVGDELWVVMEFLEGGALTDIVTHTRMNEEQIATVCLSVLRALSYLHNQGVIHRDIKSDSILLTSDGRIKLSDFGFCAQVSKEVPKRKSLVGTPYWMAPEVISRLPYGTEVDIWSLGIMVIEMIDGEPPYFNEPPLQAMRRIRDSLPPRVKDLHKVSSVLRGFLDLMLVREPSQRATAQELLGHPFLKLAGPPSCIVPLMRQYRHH
Method in brief: as §1

PFTAIRE2 = target: T10, PFTAIRE2 (Homo sapiens, UniProt Q96Q40)
T10 construct: gene CDK15
Method in brief: as §1

PIM2 = PIM2 (Homo sapiens, UniProt Q9P1W9)
Method in brief: as §1

[4] = target: T11, RSK1(Kin.Dom.1-N-terminal) (Homo sapiens, UniProt Q15418)
T11 construct: gene RPS6KA1; Kin.Dom.1-N-terminal
Method in brief: as §1

[5] = target: T12, RSK3(Kin.Dom.2-C-terminal) (Homo sapiens, UniProt Q15349)
T12 construct: gene RPS6KA2; Kin.Dom.2-C-terminal
Method in brief: as §1

STK16 = STK16 (Homo sapiens, UniProt O75716)
Method in brief: as §1

TXK = TXK (Homo sapiens, UniProt P42681)
Sequence of TXK (P42681 whole entry): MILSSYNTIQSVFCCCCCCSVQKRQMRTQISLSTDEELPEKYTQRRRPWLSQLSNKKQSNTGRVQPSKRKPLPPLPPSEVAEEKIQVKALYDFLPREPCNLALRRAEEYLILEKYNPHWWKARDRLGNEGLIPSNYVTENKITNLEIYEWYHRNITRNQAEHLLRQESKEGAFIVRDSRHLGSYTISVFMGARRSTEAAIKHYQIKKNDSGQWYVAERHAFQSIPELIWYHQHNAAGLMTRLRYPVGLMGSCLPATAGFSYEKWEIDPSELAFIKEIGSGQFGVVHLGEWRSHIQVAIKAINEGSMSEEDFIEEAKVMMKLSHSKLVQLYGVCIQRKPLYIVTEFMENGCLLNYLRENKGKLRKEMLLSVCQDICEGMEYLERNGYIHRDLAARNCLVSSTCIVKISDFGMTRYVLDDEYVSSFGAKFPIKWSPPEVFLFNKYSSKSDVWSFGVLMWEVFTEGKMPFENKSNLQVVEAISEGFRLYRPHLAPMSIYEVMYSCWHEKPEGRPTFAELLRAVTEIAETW
Method in brief: as §1

ULK1 = ULK1 (Homo sapiens, UniProt O75385)
Method in brief: as §1

Work on `CNS(=O)(=O)c1ccc(N(C)C)c(Nc2ncnc3cc(OC)c(OC)cc23)c1` [compound 7, 3-((6,7-dimethoxyquinazolin-4-yl)amino)-4-(dimethylamino)-N-methylbenzenesulfonamide] yielded an inhibition at 1 µM [1] of 40%, an inhibition at 1 µM [2] of 50% and an inhibition at 1 µM [3] of 38%. It also gave an inhibition at 1 µM (ADCK3) of 50%, an inhibition at 1 µM (AMPK-alpha2) of 12% and an inhibition at 1 µM (AURKB) of 0%. For the same compound, the inhibition at 1 µM (BUB1) was 8%, the inhibition at 1 µM (CAMK2B) was 11% and the inhibition at 1 µM (CDK7) was 6%. The inhibition at 1 µM (CDKL5) was 9%, the inhibition at 1 µM (CSNK1G1) was 0% and the inhibition at 1 µM (ERK3) was 0%. The inhibition at 1 µM (ERN1) was 0%, the inhibition at 1 µM (IKK-epsilon) was 18% and the inhibition at 1 µM (MLCK) was 0%. The inhibition at 1 µM (MYO3B) was 0%, the inhibition at 1 µM (PAK7) was 0% and the inhibition at 1 µM (PFTAIRE2) was 0%. The inhibition at 1 µM (PIM2) was 0%, the inhibition at 1 µM [4] was 2% and the inhibition at 1 µM [5] was 0%. It also gave an inhibition at 1 µM (STK16) of 0%, an inhibition at 1 µM (TXK) of 0% and an inhibition at 1 µM (ULK1) of 18%.
